In the NIST ThermoML archive (doi:10.1016/j.jct.2015.10.002):

Experiment: mn = molality of the nth substance listed, in mol/kg
Details: 101.3 kPa, Liquid; for viscosity: Capillary tube (Ostwald / Ubbelohde) method; for mass density: Vibrating tube method

OC[C@@H](O)[C@@H](O)[C@H](O)[C@@H](O)CO [D-sorbitol] + O
Details	mass density, m1 = 0.2 [kg/m3]	mass density, m1 = 0.4 [kg/m3]	mass density, m1 = 0.6 [kg/m3]	mass density, m1 = 0.8 [kg/m3]	mass density, m1 = 1 [kg/m3]	viscosity, m1 = 0.2 [mPa·s]	viscosity, m1 = 0.4 [mPa·s]	viscosity, m1 = 0.6 [mPa·s]	viscosity, m1 = 0.8 [mPa·s]	viscosity, m1 = 1 [mPa·s]
293.15 K	1010.61	1022.43	1033.64	1044.32	1054.54	1.099	1.203	1.319	1.453	1.592
303.15 K	1007.87	1019.5	1030.53	1041.07	1051.08	0.87	0.944	1.034	1.122	1.233
313.15 K	1004.3	1015.77	1026.67	1037.06	1046.99	0.708	0.766	0.829	0.903	0.977
323.15 K	999.96	1011.33	1022.12	1032.4	1042.26	0.588	0.634	0.686	0.738	0.797
